Reference: the supplement of paper PMC10307832

Columns and labels:
Assay in all cases: relative viability (nuclei count vs DMSO), 5 days (fraction); higher = more cells survive
4EGI-1 + Palbociclib = compound: O=C(O)C(Cc1ccccc1[N+](=O)[O-])=NNc1nc(-c2ccc(Cl)c(Cl)c2)cs1 (mixture of isomers) [4EGI-1] + CC(=O)c1c(C)c2cnc(Nc3ccc(N4CCNCC4)cn3)nc2n(C2CCCC2)c1=O [Palbociclib] (partner 0.5 µM)
Outline: (§1)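 Relative viability was taken as the ratio of nuclei in treated wells to nuclei in vehicle wells. Lung cancer cell lines in 1536-well plates received compounds by pin tool one day after seeding, either one drug alone or a fixed anchor-drug dose plus five library-drug doses (not always all listed) in √10 steps. Nuclei were counted on 4× images after 5 days of treatment, and values are medians of duplicate plates.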

XMD8-85 + Palbociclib = compound: CN1CCN(CC1)C2=CC(=C(C=C2)NC3=NC=C4C(=N3)N(C5=CC=CC=C5C(=O)N4C)C)OC [XMD8-85] + CC(=O)c1c(C)c2cnc(Nc3ccc(N4CCNCC4)cn3)nc2n(C2CCCC2)c1=O [Palbociclib] (partner 0.5 µM)
Outline: as §1

4EGI-1 + Olaparib = compound: O=C(O)C(Cc1ccccc1[N+](=O)[O-])=NNc1nc(-c2ccc(Cl)c(Cl)c2)cs1 (mixture of isomers) [4EGI-1] + O=C(c1cc(Cc2n[nH]c(=O)c3ccccc23)ccc1F)N1CCN(C(=O)C2CC2)CC1 [Olaparib] (partner 8 µM)
Outline: as §1

4EGI-1 + Pictilisib = compound: O=C(O)C(Cc1ccccc1[N+](=O)[O-])=NNc1nc(-c2ccc(Cl)c(Cl)c2)cs1 (mixture of isomers) [4EGI-1] + CS(=O)(=O)N1CCN(Cc2cc3nc(-c4cccc5[nH]ncc45)nc(N4CCOCC4)c3s2)CC1 [Pictilisib] (partner 1 µM)
Outline: as §1

| Cell Line | relative viability (4EGI-1 + Palbociclib; first compound 0.5 µM) | relative viability (4EGI-1 + Palbociclib; first compound 1.581 µM) | relative viability (4EGI-1 + Palbociclib; first compound 5 µM) | relative viability (4EGI-1 + Palbociclib; first compound 15.81 µM) | relative viability (4EGI-1 + Palbociclib; first compound 50 µM) | relative viability (XMD8-85 + Palbociclib; first compound 0.08 µM) | relative viability (XMD8-85 + Palbociclib; first compound 0.253 µM) | relative viability (XMD8-85 + Palbociclib; first compound 0.8 µM) | relative viability (XMD8-85 + Palbociclib; first compound 2.53 µM) | relative viability (XMD8-85 + Palbociclib; first compound 8 µM) | relative viability (4EGI-1 + Olaparib; first compound 0.5 µM) | relative viability (4EGI-1 + Olaparib; first compound 1.581 µM) | relative viability (4EGI-1 + Olaparib; first compound 5 µM) | relative viability (4EGI-1 + Olaparib; first compound 15.81 µM) | relative viability (4EGI-1 + Olaparib; first compound 50 µM) | relative viability (4EGI-1 + Pictilisib; first compound 0.5 µM) | relative viability (4EGI-1 + Pictilisib; first compound 1.581 µM) | relative viability (4EGI-1 + Pictilisib; first compound 5 µM) | relative viability (4EGI-1 + Pictilisib; first compound 15.81 µM) | relative viability (4EGI-1 + Pictilisib; first compound 50 µM) |
| --- | --- | --- | --- | --- | --- | --- | --- | --- | --- | --- | --- | --- | --- | --- | --- | --- | --- | --- | --- | --- |
| NCI-H520 | 0.27 | 0.225 | 0.266 | 0.223 | 0.105 | 0.181 | 0.211 | 0.199 | 0.221 | 0.196 | 0.375 | 0.329 | 0.458 | 0.265 | 0.13 | 0.332 | 0.315 | 0.378 | 0.367 | 0.162 |
| NCI-H647 | 0.53 | 0.302 | 0.455 | 0.303 | 0.0557 | 0.342 | 0.325 | 0.406 | 0.523 | 0.282 | 0.515 | 0.42 | 0.469 | 0.129 | 0.0662 | 0.437 | – | 0.432 | 0.401 | 0.27 |
| 201T | 0.365 | 0.358 | 0.364 | 0.316 | 0.31 | 0.342 | 0.321 | 0.36 | 0.34 | 0.325 | 0.859 | 0.753 | 0.869 | 0.777 | 0.675 | 0.702 | 0.655 | 0.707 | 0.638 | 0.603 |
| COR-L 105 | 0.386 | 0.419 | 0.434 | 0.334 | 0.344 | 0.421 | 0.423 | 0.368 | 0.382 | 0.409 | 0.64 | 0.635 | 0.644 | 0.559 | 0.537 | 0.464 | 0.356 | 0.447 | 0.342 | 0.325 |
| IA-LM | – | – | – | – | – | – | – | – | – | – | 0.767 | 0.771 | 0.644 | 0.154 | 0.0834 | 0.349 | 0.317 | 0.243 | 0.0957 | 0.08 |
| LCLC-97TM1 | 0.224 | – | 0.227 | 0.177 | 0.123 | 0.192 | 0.188 | 0.188 | 0.204 | 0.239 | 0.355 | – | 0.278 | 0.328 | 0.0574 | 0.174 | – | 0.175 | 0.199 | 0.105 |
| NCI-H1944 | 0.404 | – | 0.33 | 0.273 | 0.252 | 0.319 | 0.319 | 0.362 | 0.33 | 0.313 | 0.506 | – | 0.391 | 0.308 | 0.298 | 0.357 | – | 0.331 | 0.33 | 0.285 |
| EPLC-272H | 0.317 | – | 0.367 | 0.274 | 0.301 | 0.284 | 0.317 | 0.312 | 0.306 | 0.303 | 0.781 | 0.42 | 0.952 | 0.436 | 0.135 | 0.338 | 0.306 | 0.369 | 0.293 | 0.205 |
| NCI-H2342 | 0.506 | 0.547 | 0.582 | 0.59 | 0.539 | 0.445 | 0.561 | 0.503 | 0.544 | 0.533 | 0.472 | 0.429 | 0.43 | 0.569 | 0.51 | – | – | – | – | – |
| NCI-H1648 | 0.271 | 0.232 | 0.314 | 0.275 | 0.253 | 0.251 | 0.261 | 0.225 | 0.258 | 0.288 | 0.742 | 0.79 | 0.965 | 0.566 | 0.48 | – | – | – | – | – |
| NCI-H1437 | 0.368 | 0.308 | 0.335 | 0.279 | 0.168 | 0.295 | 0.311 | 0.289 | 0.309 | 0.203 | 0.655 | 0.625 | 0.589 | 0.395 | 0.194 | 0.532 | 0.478 | 0.533 | 0.256 | 0.126 |
| LU99A | 0.41 | 0.281 | 0.396 | 0.498 | 0.297 | 0.367 | 0.36 | 0.458 | 0.46 | 0.368 | 0.243 | 0.212 | 0.242 | 0.193 | 0.141 | 0.375 | – | 0.346 | 0.326 | 0.247 |
| NCI-H1993 | 0.727 | 0.624 | 0.584 | 0.52 | 0.366 | 0.564 | 0.595 | 0.612 | 0.692 | 0.61 | 1.11 | 0.965 | 1.21 | 0.967 | 0.522 | 0.919 | 0.761 | 0.781 | 0.736 | 0.862 |
| NCI-H838 | 0.237 | 0.223 | 0.228 | 0.2 | 0.119 | 0.224 | 0.197 | 0.227 | 0.251 | 0.184 | 0.752 | 0.752 | 0.677 | 0.372 | 0.161 | 0.527 | – | 0.435 | 0.362 | 0.173 |
| NCI-H322M | 0.461 | – | 0.516 | 0.46 | 0.453 | 0.466 | 0.447 | 0.457 | 0.444 | 0.431 | 0.761 | – | 0.795 | 0.761 | 0.457 | 0.56 | 0.467 | 0.527 | 0.443 | 0.5 |
| NCI-H3122 | 0.191 | 0.158 | 0.152 | 0.227 | 0.199 | 0.188 | 0.192 | 0.218 | 0.186 | 0.215 | 0.578 | 0.554 | 0.667 | 0.448 | 0.301 | 0.599 | 0.531 | 0.632 | 0.635 | 0.412 |
| NCI-H1703 | – | – | – | – | – | – | – | – | – | – | 0.601 | 0.46 | 0.409 | 0.52 | 0.331 | 0.266 | 0.253 | 0.238 | 0.222 | 0.255 |
